Reference: patent publication US12528818B2, “Compositions and methods for inhibition of RAS” (Leidos Biomedical Research, Inc., priority 2021, dated 2026)

These molecules were tested on pERK in NCI-H358 cells (assay: Cell-based pERK HTRF assay (pERK inhibition in H358 cells)). Conditions: Homo sapiens, NCI-H358, 0.5 h, pERK inhibition IC50, NCI-H358 cells, 30 min incubation; read-out: PERK in H358 cell.

Structure (SMILES) | IC50 [nM]
C=CC(=O)N1[C@H](C)CN(c2nc(OC[C@@]34CCCN3C[C@H](F)C4)nc3c(F)c(-c4ccc(F)c5sc(N)c(C#N)c45)c(C(F)(F)F)cc23)C[C@H]1C [Compound 330] | 100 to 1000
C#CC(=O)N1CC(Nc2nc(OC[C@@H]3CCCN3C)nc3c(F)c(-c4ccc(F)c5sc(N)nc45)c(Cl)cc23)C1 [Compound 81] | 100 to 1000
C=CC(=O)N1CCC(N(C)c2nc(OC[C@@H]3CCCN3C)nc3c(F)c(-c4ccc(F)c5sc(N)c(C#N)c45)ccc23)[C@H]1C (some centres unmarked) [Compound 420] | < 100
C=CC(=O)N1CCC(N(C)c2nc(OC[C@@H]3C[C@@H](OC)CN3C)nc3c(F)c(-c4ccc(F)c5sc(N)c(C#N)c45)c(C(F)(F)F)cc23)[C@H]1C (some centres unmarked) [Compound 407] | < 100
C=CC(=O)N1CC[C@@H](N(C)c2nc(OC[C@@]34CCCN3C[C@H](F)C4)nc3c(F)c(-c4ccc(F)c5sc(N)c(C#N)c45)c(C(F)(F)F)cc23)[C@H]1CF [Compound 337] | < 100
C=CC(=O)N1CCN(c2nc(OC[C@]34CCCN3C[C@H](F)C4)nc3c(F)c(-c4ccc(F)c5sc(N)nc45)c(C(F)(F)F)cc23)CC1 [Compound 150] | < 100
C=CC(=O)N1C[C@H](N(C)c2nc(OC[C@@]34CCCN3C[C@H](F)C4)nc3c(F)c(-c4ccc(F)c5sc(N)c(C#N)c45)ccc23)C[C@H]1C [Compound 319] | < 100
C=CC(=O)N1CC(N(c2nc(OCC34CCCN3CCC4)nc3c(F)c(-c4ccc(F)c5sc(N)nc45)c(C(F)(F)F)cc23)C2CC2)C1 [Compound 152] | > 1000
C=CC(=O)N1C[C@@H](F)[C@@H](N(C)c2nc(OC[C@@H]3C[C@@H](F)CN3C)nc3cc(-c4ccc(F)c5sc(N)nc45)c(C(F)(F)F)cc23)C1 [Compound 355] | < 100
CC#CC(=O)N1CCN(c2nc(OC[C@@H]3CCCN3CCF)nc3c(F)c(-c4ccc(F)c5sc(N)nc45)c(C(F)(F)F)cc23)CC1 [Compound 154] | 100 to 1000
C=CC(=O)N1CC[C@@H](N(CC)c2ncnc3c(F)c(-c4ccc(F)c5sc(N)nc45)c(C(F)(F)F)cc23)C1 [Compound 248] | 100 to 1000
C=CC(=O)N1CC(Nc2nc(OC[C@@H]3CCCN3C)nc3c(F)c(-c4ccc(F)c5sc(N)nc45)c(Cl)cc23)C1 [Compound 23, 1-(3-((7-(2-amino-7-fluorobenzo[d]thiazol-4-yl)-6-chloro-8-fluoro-2-(((S)-1-methylpyrrolidin-2-yl)methoxy)quinazolin-4-yl)amino)azetidin-1-yl)prop-2-en-1-one] | > 1000
C=CC(=O)N1C[C@H](C)N(c2nc(OC[C@@]34CCCN3C[C@H](F)C4)nc3c(F)c(-c4ccc(F)c5sc(NC(C)=O)c(C#N)c45)c(C(F)(F)F)cc23)C[C@H]1C [Compound 378] | 100 to 1000
C=CC(=O)N1CCC(N(CC)c2nc(OC[C@@]34CCCN3C[C@H](F)C4)nc3c(C#N)c(-c4ccc(F)c5sc(N)c(C#N)c45)c(Cl)cc23)[C@H]1C (some centres unmarked) [Compound 411] | < 100
C=CC(=O)N1CCC(N(CC)c2nc(OC[C@@H]3C[C@@H](OC)CN3C)nc3c(F)c(-c4ccc(F)c5sc(N)c(C#N)c45)c(C(F)(F)F)cc23)[C@H]1COC (some centres unmarked) [Compound 427] | < 100
CC#CC(=O)N(C)C1CN(c2nc(OCC34CCCN3CCC4)nc3c(F)c(-c4ccc(F)c5sc(N)nc45)c(Cl)cc23)C1 [Compound 172] | > 1000
C=CC(=O)N1CC(N(C)c2nc(OC[C@@]34CCCN3C[C@H](OC)C4)nc3c(F)c(-c4ccc(F)c5sc(N)nc45)c(C(F)(F)F)cc23)C1 [Compound 201] | 100 to 1000
C=CC(=O)N1CC[C@@H](N(CC)c2nc(OCC34CCCN3CCC4)nc3c(F)c(-c4ccc(F)c5sc(N)nc45)c(C(F)(F)F)cc23)C1 [Compound 249] | 100 to 1000
C=CC(=O)N1CC[C@H](N(C)c2nc(OC[C@@]34CCCN3C[C@H](F)C4)nc3c(F)c(-c4ccc(F)c5sc(N)nc45)c(Cl)cc23)C1 [Compound 185] | 100 to 1000
C=CC(=O)N1C[C@@H](F)[C@@H](N(C)c2nc(OC[C@@]34CCCN3C[C@H](F)C4)nc3c(F)c(-c4ccc(F)c5sc(N)c(C#N)c45)ccc23)C1 [Compound 359] | < 100
C=CC(=O)N1CCC(N(C)c2nc(OC[C@@H]3CC4(CC4)CN3C)nc3c(F)c(-c4ccc(F)c5sc(N)c(C#N)c45)ccc23)[C@H]1COC (some centres unmarked) [Compound 433] | < 100
C=CC(=O)N1C[C@@H]2C[C@H]1[C@@H]2N(C)c1nc(OC[C@@]23CCCN2C[C@H](F)C3)nc2c(F)c(-c3ccc(F)c4sc(N)nc34)c(C(F)(F)F)cc12 [Compound 282] | > 1000
C=CC(=O)N1CC[C@@H](N(C)c2nc(OC[C@@]34CCCN3C[C@H](F)C4)nc3c(Cl)c(-c4ccc(F)c5sc(N)nc45)c(C(F)(F)F)cc23)C1 (single isomer, unassigned) [Compound 302] | < 100

Structure (SMILES) | IC50 [nM]
C=CC(=O)N1CCN(c2nc(OC[C@@]34CCCN3C[C@H](F)C4)nc3c(F)c(-c4ccc(F)c5sc(N)nc45)c(C(F)(F)F)cc23)CC1 [Compound 194] | < 100
C=CC(=O)N1CCN(c2nc(OC[C@@]34CCCN3C[C@@H](F)C4)nc3c(F)c(-c4ccc(F)c5sc(N)nc45)c(C(F)(F)F)cc23)C[C@H]1C [Compound 220] | < 100
C=CC(=O)N1C[C@H](C)N(c2nc(OC[C@]34CCCN3C[C@H](F)C4)nc3c(F)c(-c4ccc(F)c5sc(N)nc45)c(C(F)(F)F)cc23)C[C@H]1C [Compound 204, 1-((2R,5S)-4-(7-(2-amino-7-fluorobenzo[d]thiazol-4-yl)-8-fluoro-2-(((2R,7aR)-2-fluorotetrahydro-1H-pyrrolizin-7a(5H)-yl)methoxy)-6-(trifluoromethyl)quinazolin-4-yl)-2,5-dimethylpiperazin-1-yl)prop-2-en-1-one] | < 100
C=CC(=O)N1CCC(N(C)c2nc(OC[C@@]34CCCN3C[C@H](OC)C4)nc3c(F)c(-c4ccc(F)c5sc(N)c(C#N)c45)c(Cl)cc23)[C@H]1C (some centres unmarked) [Compound 474] | < 100
C=CC(=O)N1CCC(N(C)c2nc(OC)nc3c(F)c(-c4ccc(F)c5sc(N)c(C#N)c45)ccc23)[C@H]1C (some centres unmarked) [Compound 461] | > 1000
C=CC(=O)N1CC[C@@H](N(C)c2nc(OC[C@@]34CCCN3C[C@H](F)C4)nc3c(F)c(-c4ccc(F)c5sc(N)c(C#N)c45)c(Cl)cc23)[C@H]1C [Compound 395, 4-(4-((1-acryloyl-2-methylpyrrolidin-3-yl)(methyl)amino)-6-chloro-8-fluoro-2-(((2R,7aS)-2-fluorotetrahydro-1H-pyrrolizin-7a(5H)-yl)methoxy)quinazolin-7-yl)-2-amino-7-fluorobenzo[b]thiophene-3-carbonitrile] | < 100
C=CC(=O)N1CCN(c2nc(OC[C@@H]3CCCN3C)nc3c(F)c(-c4ccc(F)c5sc(N)nc45)c(Cl)cc23)CC1 [Compound 44] | < 100
CC#CC(=O)N1CCN(c2nc(OCC34CCCN3CC(C)(C)C4)nc3c(F)c(-c4ccc(F)c5sc(N)nc45)c(C(F)(F)F)cc23)CC1 (centres unmarked) [Compound 170] | 100 to 1000
C=CC(=O)N1CCN(c2ncnc3c(F)c(-c4ccc(F)c5sc(N)nc45)c(Cl)c(OC)c23)CC1 [Compound 82] | < 100
C=CC(=O)N1CCC(N(C)c2nc(OC[C@@H]3CC4(CC4)CN3C)nc3c(F)c(-c4ccc(F)c5sc(N)c(C#N)c45)c(C(F)(F)F)cc23)[C@H]1C (some centres unmarked) [Compound 409] | < 100
C=CC(=O)N1CC[C@@H](N(C)c2nc(OCC3(CN4CC[C@@H](F)C4)CC3)nc3c(F)c(-c4ccc(F)c5sc(N)nc45)c(C(F)(F)F)cc23)C1 [Compound 288] | < 100
CC#CC(=O)N1CC[C@@H]2[C@H]1CN2c1nc(OCC23CCCN2CCC3)nc2c(F)c(-c3ccc(F)c4sc(N)nc34)c(Cl)cc12 [Compound 118] | > 1000
C=CC(=O)N1[C@H](C)CN(c2nc(OC[C@@]34CCCN3C[C@@H](F)C4)nc3c(F)c(-c4ccc(F)c5sc(N)nc45)c(C(F)(F)F)cc23)C[C@@H]1C [Compound 224] | < 100
C=CC(=O)N1C[C@H](C)N(c2nc(OCC34CCCN3C[C@H](F)C4)nc3c(F)c(-c4ccc(F)c5sc(C(F)F)nc45)c(C(F)(F)F)cc23)C[C@H]1C (some centres unmarked) [Compound 307] | < 100
C=CC(=O)N1CCC(N(CC)c2nc(OC[C@@H]3C[C@@H](F)CN3C)nc3c(F)c(-c4ccc(F)c5sc(N)c(C#N)c45)c(C(F)(F)F)cc23)[C@H]1COC (some centres unmarked) [Compound 453] | < 100
C=CC(=O)N1C[C@@H](F)[C@@H](N(C)c2nc(OC[C@@H]3CC4(CC4)CN3C)nc3cc(-c4ccc(F)c5sc(N)nc45)c(C(F)(F)F)cc23)C1 [Compound 351] | < 100
C=CC(=O)N1CCC(N(C)c2nc(OC[C@@]34CCCN3C[C@H](OC)C4)nc3c(F)c(-c4ccc(F)c5sc(N)c(C#N)c45)c(C(F)(F)F)cc23)[C@H]1C (some centres unmarked) [Compound 476] | < 100
C=CC(=O)N1CC[C@@H](N(C)c2nc(OC[C@@]34CCCN3C[C@H](F)C4)nc3cc(-c4ccc(F)c5sc(N)c(C#N)c45)c(C#N)cc23)[C@H]1COC [Compound 393] | < 100
C=CC(=O)N1CCN(c2nc(OC[C@@H]3CCCN3CCF)nc3c(F)c(-c4ccc(F)c5sc(N)nc45)c(C(F)(F)F)cc23)CC1 [Compound 153] | < 100
C=CC(=O)N1CCN(c2ncnc3c(F)c(-c4ccc(F)c5sc(N)nc45)c(CC#N)cc23)CC1 [Compound 72] | > 1000
C=CC(=O)N1C[C@H](C)N(c2nc(N3CC(N4CC(OC)C4)C3)nc3c(F)c(-c4ccc(F)c5sc(N)c(C#N)c45)c(C(F)(F)F)cc23)C[C@H]1C [Compound 331] | < 100
C=CC(=O)N1CCN(c2nc(OC[C@@]34CCCN3C[C@H](F)C4)nc3c(F)c(-c4ccc(F)c5sc(N)c(C#N)c45)c(C(F)(F)F)cc23)C[C@H]1C [Compound 318] | < 100

Same assay, conditions: pERK inhibition IC50, NCI-H358 cells, 30 min incubation; read-out: PERK in H358 cell

Structure (SMILES) | IC50 [nM]
C=CC(=O)N1CC[C@@H](N(C)c2nc(OCC34CCCN3CCC4)nc3c(F)c(-c4ccc(F)c5sc(N)nc45)c(C(F)(F)F)cc23)C1 (atropisomer, axis not shown) [Compound 221] | > 1000
C=CC(=O)N1CC[C@@H](N(C)c2nc(OC[C@@H]3CC4(CC4)CN3C)nc3c(F)c(-c4ccc(F)c5sc(N)nc45)c(C(F)(F)F)cc23)C1 (atropisomer, axis not shown) [Compound 256] | < 100
